Results published in BindingDB's records for doi:10.1021/jm00001a008 (R. W. Johnson Pharmaceutical Research Institute, 1995).
Structures can show the parent of a compound that is named as a salt.

Assays:
[1] = target: T1, Integrin alpha-IIb/beta-3 (Homo sapiens, UniProt P08514+P05106); experiment: Inhibition of arachidonic acid-induced platelet aggregation
[2] = target: T1, Integrin alpha-IIb/beta-3; experiment: Inhibition of collagen-induced platelet aggregation
[3] = target: T1, Integrin alpha-IIb/beta-3; experiment: Inhibition of thrombin-induced platelet aggregation at 50 uM

T1 sequence (P05106 27-788 limits assumed): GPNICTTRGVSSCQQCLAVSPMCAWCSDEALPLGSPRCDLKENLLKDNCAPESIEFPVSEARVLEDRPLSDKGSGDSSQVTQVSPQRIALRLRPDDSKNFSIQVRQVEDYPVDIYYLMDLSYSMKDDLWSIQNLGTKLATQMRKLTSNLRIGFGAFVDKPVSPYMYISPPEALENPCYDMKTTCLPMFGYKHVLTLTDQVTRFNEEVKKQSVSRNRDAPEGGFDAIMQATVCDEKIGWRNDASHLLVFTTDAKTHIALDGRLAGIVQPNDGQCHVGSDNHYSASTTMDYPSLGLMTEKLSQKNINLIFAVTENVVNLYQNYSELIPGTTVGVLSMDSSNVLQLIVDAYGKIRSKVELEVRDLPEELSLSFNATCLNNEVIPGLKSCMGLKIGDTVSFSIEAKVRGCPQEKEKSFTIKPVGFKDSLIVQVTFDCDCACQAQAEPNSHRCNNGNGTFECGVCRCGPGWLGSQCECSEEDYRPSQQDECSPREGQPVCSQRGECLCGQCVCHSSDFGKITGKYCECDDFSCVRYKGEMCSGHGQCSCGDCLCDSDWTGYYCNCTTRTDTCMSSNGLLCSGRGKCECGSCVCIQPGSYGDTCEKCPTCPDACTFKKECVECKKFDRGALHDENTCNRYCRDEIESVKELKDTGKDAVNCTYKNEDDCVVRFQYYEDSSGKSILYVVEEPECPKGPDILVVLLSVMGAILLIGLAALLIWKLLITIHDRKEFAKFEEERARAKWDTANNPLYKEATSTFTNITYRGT
T1 sequence (P08514 32-887 limits assumed): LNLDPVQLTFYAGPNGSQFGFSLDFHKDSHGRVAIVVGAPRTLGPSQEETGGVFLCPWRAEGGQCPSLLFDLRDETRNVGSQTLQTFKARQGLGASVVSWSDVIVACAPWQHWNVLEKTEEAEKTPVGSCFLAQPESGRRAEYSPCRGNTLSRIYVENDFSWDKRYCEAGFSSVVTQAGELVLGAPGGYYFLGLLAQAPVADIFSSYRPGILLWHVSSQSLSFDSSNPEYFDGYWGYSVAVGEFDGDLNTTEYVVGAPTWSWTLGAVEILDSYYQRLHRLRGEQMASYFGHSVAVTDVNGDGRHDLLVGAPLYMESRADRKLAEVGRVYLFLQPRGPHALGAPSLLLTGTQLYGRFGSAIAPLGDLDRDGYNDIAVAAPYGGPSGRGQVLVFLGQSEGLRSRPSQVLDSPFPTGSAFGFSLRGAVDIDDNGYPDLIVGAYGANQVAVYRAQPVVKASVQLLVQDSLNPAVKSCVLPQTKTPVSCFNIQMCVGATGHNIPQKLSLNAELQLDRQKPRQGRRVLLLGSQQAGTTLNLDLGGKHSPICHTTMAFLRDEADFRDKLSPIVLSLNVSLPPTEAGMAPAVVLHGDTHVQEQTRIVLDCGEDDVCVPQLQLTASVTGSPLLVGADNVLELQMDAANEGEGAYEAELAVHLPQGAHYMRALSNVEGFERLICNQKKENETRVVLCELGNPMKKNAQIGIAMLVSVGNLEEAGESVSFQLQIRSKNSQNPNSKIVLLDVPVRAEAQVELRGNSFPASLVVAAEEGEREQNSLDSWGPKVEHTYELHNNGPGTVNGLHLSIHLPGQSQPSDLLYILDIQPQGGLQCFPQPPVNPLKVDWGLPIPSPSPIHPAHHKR
T1 sequence (P08514 891-1039 limits assumed): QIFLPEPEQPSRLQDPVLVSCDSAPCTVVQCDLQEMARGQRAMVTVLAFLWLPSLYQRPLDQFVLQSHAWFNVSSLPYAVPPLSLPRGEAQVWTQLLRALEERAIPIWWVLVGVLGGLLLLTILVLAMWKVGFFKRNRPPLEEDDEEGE

SMILES: CCN(CC)CCCNC(=O)c1cnn(-c2nc(-c3cccc(C(F)(F)F)c3)c(Br)s2)c1C(F)(F)F [1-[5-Bromo-4-(3-trifluoromethyl-phenyl)-thiazol-2-yl]-5-trifluoromethyl-1H-pyrazole-4-carboxylic acid (3-diethylamino-propyl)-amide]
- IC50 [1]: 2.1 µM
- IC50 [2]: 3.5 µM

SMILES: CC(=O)Oc1ccccc1C(=O)O [2-(acetyloxy)benzoic acid]
- IC50 [1]: 5 µM
- IC50 [2]: > 100 µM

SMILES: NCCNC(=O)c1cnn(-c2nc(-c3cccc(C(F)(F)F)c3)cs2)c1C(F)(F)F [5-Trifluoromethyl-1-[4-(3-trifluoromethyl-phenyl)-thiazol-2-yl]-1H-pyrazole-4-carboxylic acid (2-amino-ethyl)-amide; hydrochloride]
- IC50 [3]: 11.2 µM

SMILES: NCCCNC(=O)c1cnn(-c2nc(-c3cccc(C(F)(F)F)c3)cs2)c1C(F)(F)F [5-Trifluoromethyl-1-[4-(3-trifluoromethyl-phenyl)-thiazol-2-yl]-1H-pyrazole-4-carboxylic acid (3-amino-propyl)-amide; hydrochloride]
- IC50 [1]: 3.7 µM
- IC50 [2]: 3 µM

SMILES: CCN(CC)CCCNC(=O)c1cnn(-c2nc(-c3cccc(C(F)(F)F)c3)cs2)c1C(F)(F)F [5-Trifluoromethyl-1-[4-(3-trifluoromethyl-phenyl)-thiazol-2-yl]-1H-pyrazole-4-carboxylic acid (3-diethylamino-propyl)-amide]
- IC50 [1]: 0.4 µM
- IC50 [2]: 2.5 µM

SMILES: O=C(NCCCN1CCCCC1)c1cnn(-c2nc(-c3cccc(C(F)(F)F)c3)cs2)c1C(F)(F)F [5-Trifluoromethyl-1-[4-(3-trifluoromethyl-phenyl)-thiazol-2-yl]-1H-pyrazole-4-carboxylic acid (3-piperidin-1-yl-propyl)-amide]
- IC50 [1]: 12 µM
- IC50 [2]: 3 µM

SMILES: CCCNCCCNC(=O)c1cnn(-c2nc(-c3cccc(C(F)(F)F)c3)cs2)c1C(F)(F)F [5-Trifluoromethyl-1-[4-(3-trifluoromethyl-phenyl)-thiazol-2-yl]-1H-pyrazole-4-carboxylic acid (3-propylamino-propyl)-amide]
- IC50 [1]: 4.1 µM
- IC50 [2]: 3.5 µM

SMILES: NCCCCNC(=O)c1cnn(-c2nc(-c3cccc(C(F)(F)F)c3)cs2)c1C(F)(F)F [5-Trifluoromethyl-1-[4-(3-trifluoromethyl-phenyl)-thiazol-2-yl]-1H-pyrazole-4-carboxylic acid (4-amino-butyl)-amide; hydrochloride]
- IC50 [1]: 4.5 µM
- IC50 [2]: 0.1 µM

SMILES: COc1ccc(CCNC(=O)C(CC(=O)O)NC(=O)CCCCCCCNC(=N)N)cc1 (stereo unspecified) [SC-47643]
- IC50 [1]: 2.4 µM
